In US20190350885A1, “PROPHYLAXIS TREATMENT FOR ACUTE MYELOID LEUKEMIA” (Indiana University Research and Technology Corporation, priority 2017, published 2019):
Entries after “also recorded” stand apart in the source; their conditions may differ.

How the values were obtained:
[1] = test system: Tet2-KO Lin-negative bone marrow cells; test: CFU (colony forming unit) assay, primary and secondary replating; assay type: cell-based, mouse; details: primary and secondary plating, in vitro
Text: CFU assay. Bone marrow Lin-negative cells or LSK cells were isolated as described above and platted in a CFU assay using MethoCult™ GF M3434 (Stem Cell). Colonies were counted after 7-days of culture.

Morrbid promoter = test: CHIP-qPCR assay of IκBζ and Stat3 binding; assay type: cell-based, mouse; details: Tet2-KO Lin-negative bone marrow cells
Text: CHIP-qPCR assay. BM Lin-negative cells were used to extract chromatin DNA using MAGnify™ Chromatin Immunoprecipitation System (ThermoFisher) according to the manufacturer's instruction. CHIP purified chromatin DNA and input DNA were normalized to identical concentration for qPCR validation and enrichment analysis (1% enrichment of input level was defined as unit 1). The following antibodies were used for chromatin precipitation:Anti-IκBζ and Anti-Stat3 (Cell Signaling Technologies).

phospho-Stat3 = phospho-Stat3 expression in Tet2-KO Lin-negative cells; assay type: cell-based, mouse
Tet2-KO mice = test: LPS-induced acute inflammation (emergency granulopoiesis/hematopoiesis) in mice; assay type: in vivo, mouse; details: for LPS-induced expansion of LSK cells in bone marrow / LPS-induced emergency neutrophil production in peripheral blood (emergency granulopoiesis): LPS 0.8 mg/kg i.p. one dose, drug two days before and two days after LPS, day 2 post LPS; for LPS-induced emergency neutrophil production in peripheral blood (emergency granulopoiesis): APX3330 20 mg/kg twice a day i.p., SHP099 50 mg/kg daily gavage
Text: Mice, LPS treatment and peripheral blood analysis. All mice were bred and maintained under specified pathogen-free (SPF) conditions at an animal facility at Indiana University School of Medicine. Experiments with mice were approved by the Institutional Animal Care and Use Committee (IACUC) of Indiana University School of Medicine. Tet2-knockout mice (Tet2^−/−, or Tet2-KO, CD45.2) is on C57BL/6 genetic background and has been previously described in Li et al., Blood 118, 4509-4518 (2011). Normal C57BL/6 (wild type, CD45.2) mice were purchased from The Jackson Laboratory and used as controls for all experiments. Whenever possible littermates were used as controls for all experiments.
(§1) Lipopolysaccharide (LPS) was purchased from Sigma (Cat # L8643) and dissolved in sterile phosphate-buffered saline (PBS) prior to being given to the mice for one dose only (0.8 mg/kg, i.p.). APX3330 (also referred to herein as E3330) was dissolved in Cremophor:EtOH (1:1) (Cremophor were purchased from Sigma, Cat # C5135) for making solution stock and then diluted in PBS prior to be used for pre-LPS treatment or post-LPS treatment (20 mg/kg, twice a day, i.p.). SHP099 (provided by Norvartis), was dissolved in 0.5% Methylcellulose (Sigma, Cat# M0262) and 0.1% Tween-80 (Fisher Scientific, Cat #BP338-500) and fed to animals by gavage (daily, 50 mg/kg). Male and female mice between 3-4 weeks (juvenile mice) or 8-16 weeks (adult mice) of age were used for LPS or LPS plus APX3330 experiments. Age and sex matched mice were always used as naïve (Day 0) controls. Aged Tet2-KO mice (male or female, 6-8 months of age) were used for APX3330 or SHP099 treatment in FIGS. 11A-11D.
(§2) Hematological analysis on peripheral blood (PB, from tail-bleeding) was run by an automated cell counter machine (Drew Hemavet 950). Total bone marrow (BM) cells were harvested from two femurs and two tibias of mice and filtered on 50-μm sterile filters. BM cells were always kept on ice or in refrigeration and stored in sterile blocking buffer containing 2% rat-serum prior to analysis. BM cellularity (viable cell counts) was analyzed by an automated cell counter (Beckman the Vi-CELL™ Cell Counter for Cell Viability Analyzer).
(§3) Flow cytometry. Non-lysed BM cells were used for analysis of erythroid lineage and progenitor cells (Ter119 and CD71 staining). Remaining flow cytometry analysis was performed on lysed bone marrow cells (Lysis Buffer, BD, Cat #555899). Antibodies against Ter119, Mac1, Gr1, B220, CD3, CD4 and CD8 were used for mature cells labeling (Linage labeling). Progenitor cells were labeled and analyzed by indicated markers. Antibody-labeled BM cells were run on a BD FACS-CANTO II machine with a two-laser and six-filter configuration. The properly compensated flow data were analyzed by Flow Jo software (V10.2). Events plotting, calculation of frequency and mean of fluorescence intensity (MFI), and histogram overlaying were analyzed by Flow Jo software.
It was next examined if APX3330 or SHP099 could repress inflammation and “emergency hematopoiesis” in Tet2-KO mice in vivo. It was first assessed if APX3330 or SHP099 could normalize LPS-induced acute inflammation. Before challenging the mice with LPS, wildtype and Tet2-KO mice were prophylactically treated with APX3330 or SHP099 for two days. Post LPS treatment, APX3330 or SHP099 was continuously injected in these mice for another two days (FIG. 13A). On day 2, post LPS treatment, mice were sacrificed and analyzed.

aged Tet2-KO mice = test: Treatment of aged Tet2-KO mice with early signs of MPN; assay type: in vivo, mouse; details: for frequency of LSKs and CMPs / neutrophil counts (absolute numbers, burden) in peripheral blood / neutrophil frequency (percentage) in peripheral blood / platelet counts / red blood cell (RBC) counts (anemia) / serum IL-6 levels / spleen weight / splenomegaly / white blood cell (WBC) burden/count: treatment for 14 days; for early signs of MPN: aged Tet2-KO mice
Protocol: as §1, §2, §3
Multiplex cytokine assays. Serum samples were prepared from PB (tail-bleeding) and diluted in sterile PBS (1 to 2 dilution(s)). Thirty-one cytokines or chemokines were quantified by multiplex immunoassay with a BioPlex 200 instrument (Eve Technologies, Mouse Cytokine Array/Chemokine Array 31-Plex, Cat # MD31).
Statistics. All experimental procedures on Tet2-KO samples were run in parallel with wildtype controls (sex and age matched littermate controls when possible) for observing experimental variabilities. Analysis of grouped data was not blinded and no samples were excluded. Aged Tet2-KO mice were randomized into two groups for treatment with APX3330 or vehicle, SHP099 or vehicle (FIGS. 11A-11D). P-value was calculated using an unpaired t-test for comparing means of two groups (GraphPad Prism 6.0). Error bars in FIGS. 1-10 and 11A indicate the standard error of mean (s.e.m.) while error bars in FIG. 11C indicate the standard deviation (s.d.). Except that the secondary cBMT was performed in only one independent experiment for each group, all other assays were performed in at least two independent experiments with at least 3-5 biological replicates in total.
Furthermore, aged Tet2-KO maintained higher level of serum IL-6 compared to wildtype mice (FIG. 13H). 6-month old Tet2-KO mice were treated with APX3330 or SHP099 to assess the potential therapeutic benefit of these drugs in older mice (daily treatment for 14 days, FIG. 13I).

[2] = aged (6-month old) Tet2-KO mice
[3] = aged (6-month old) Tet2-KO mice, listed as E3330

CC1(N)CCN(c2cnc(-c3cccc(Cl)c3Cl)c(N)n2)CC1 [SHP099, 6-(4-amino-4-methyl-1-piperidinyl)-3-(2,3-dichlorophenyl)-2-pyrazinamine]
colony forming ability (CFU formation) [1]: decreased; also recorded: block the enhanced colony forming activity; also recorded: corrected the enhanced colony forming ability | IκBζ and Stat3 binding to Morrbid promoter (Morrbid promoter): decreased; also recorded: rescues the enhanced binding of IκBζ and Stat3 to the Morribid promoter | expression of phospho-Stat3 (phospho-Stat3): decreased expression of phospho-Stat3 | LPS-induced expansion of LSK cells in bone marrow (Tet2-KO mice): significant correction; also recorded: effectively repressed | LPS-induced emergency neutrophil production in peripheral blood (emergency granulopoiesis) (Tet2-KO mice): significant correction in the enhanced production of neutrophils; also recorded: effectively repressed | frequency of LSKs and CMPs (aged Tet2-KO mice; [2]): failed to reverse | neutrophil counts (absolute numbers, burden) in peripheral blood (aged Tet2-KO mice; [2]): significantly reduce; also recorded: rescue | neutrophil frequency (percentage) in peripheral blood (aged Tet2-KO mice; [2]): rescue | platelet counts (aged Tet2-KO mice; [2]): restored | red blood cell (RBC) counts (anemia) (aged Tet2-KO mice; [2]): restores | serum IL-6 levels (aged Tet2-KO mice; [2]): reduced; also recorded: rescue | spleen weight / splenomegaly (aged Tet2-KO mice; [2]): a reduction in spleen weight was also observed in drug treated Tet2-KO mice, although it did not reach statistical significance | white blood cell (WBC) burden/count (aged Tet2-KO mice; [2]): significantly reduce; also recorded: restores | early signs of MPN (aged Tet2-KO mice): reversed early signs of MPN

CCCCCCCCCC(=CC1=C(C)C(=O)C(OC)=C(OC)C1=O)C(=O)O [APX3330]
colony forming ability (CFU formation) [1]: normalization of colony formation; also recorded: block the enhanced colony forming activity | colony forming ability (CFU formation) ([1]; listed as E3330): corrected the enhanced colony forming ability | IκBζ and Stat3 binding to Morrbid promoter (Morrbid promoter): reduced IKBζ and Stat3 binding to Morrbid promoter | IκBζ and Stat3 binding to Morrbid promoter (Morrbid promoter; listed as E3330): rescues the enhanced binding of IκBζ and Stat3 to the Morribid promoter | LPS-induced expansion of LSK cells in bone marrow (Tet2-KO mice): significant correction; also recorded: effectively repressed; also recorded: represses the expansion of LSK cells | LPS-induced emergency neutrophil production in peripheral blood (emergency granulopoiesis) (Tet2-KO mice): significant correction in the enhanced production of neutrophils; also recorded: effectively repressed; also recorded: represses emergency neutrophil production | LPS-induced emergency neutrophil production in peripheral blood (emergency granulopoiesis) (Tet2-KO mice; listed as E3330): repressed | LPS-induced expansion of LSK cells in bone marrow (Tet2-KO mice; listed as E3330): repressed | bone marrow cellularity (Tet2-KO mice; LPS-treated wild type and Tet2-KO mice, short-term treatment): maintained normal bone marrow cellularity | hematocrits (HCT) (aged Tet2-KO mice; [2]): rescued to normal levels | frequency of LSKs and CMPs (aged Tet2-KO mice; [2]): failed to reverse | neutrophil counts (absolute numbers, burden) in peripheral blood (aged Tet2-KO mice; [2]): significantly reduced | neutrophil frequency (percentage) in peripheral blood (aged Tet2-KO mice; [2]): significantly reduced | platelet counts (aged Tet2-KO mice; [2]): restored | red blood cell (RBC) counts (anemia) (aged Tet2-KO mice; [2]): restores; also recorded: rescued to normal levels | serum IL-6 levels (aged Tet2-KO mice; [2]): reduced | spleen weight / splenomegaly (aged Tet2-KO mice; [2]): a reduction in spleen weight was also observed in drug treated Tet2-KO mice, although it did not reach statistical significance; also recorded: failed to alter splenomegaly | white blood cell (WBC) burden/count (aged Tet2-KO mice; [2]): significantly reduce; also recorded: restores | neutrophil counts (absolute numbers, burden) in peripheral blood (aged Tet2-KO mice; [3]): rescue | neutrophil frequency (percentage) in peripheral blood (aged Tet2-KO mice; [3]): rescue | serum IL-6 levels (aged Tet2-KO mice; [3]): rescue | early signs of MPN (aged Tet2-KO mice): reverses early signs of MPN | early signs of MPN (aged Tet2-KO mice; listed as E3330): reversed early signs of MPN
